Test results: article PMC5007270, “[^68Ga]NODAGA-RGD – Metabolic stability, biodistribution, and dosimetry data from patients with hepatocellular carcinoma and liver cirrhosis” (European Journal of Nuclear Medicine and Molecular Imaging, 2016)
Entries after “also recorded” stand apart in the source; their conditions may differ. Where two headings read alike, the source gives them in different places. One block for each compound: values may come before it.

Key:
[1] = Metabolite analysis of urine samples by RP-HPLC; assay type: in vivo; settings: human urine 60 min p.i., n = 6; RP-HPLC C18, radiometric detector
Experimental: (§1) Blood samples were collected 30 and 60 min and urine 60 min after tracer injection. Blood samples (approx. 15 ml) were centrifuged at 2,500 rpm for 5 min. The supernatant was treated with acetonitrile (1:1) and centrifuged at 3,000 rpm for 3 min. To remove the organic solvent, 1 ml of the supernatant was treated with an argon stream and approx. 300 μl of the remaining solution was analyzed. For urine analysis, an aliquot of 1 ml was passed through a sterile filter (Millex GV, Merck KGaA, Darmstadt, Germany), washed with 1 ml water (which was separately collected) and 50 μl of the filtrate was analyzed.
(§2) Analysis of metabolites was carried out using reversed-phase high-performance liquid chromatography (RP-HPLC) systems. For blood sample analysis, a Dionex P680 Pump (Germering, Germany) with a sample loop of 1 ml and a SRD Nucleosil 120-3C18 column (150 × 3 mm; Vienna, Austria) were used and fractions of 30 s were collected manually and counted in a 2480 Wizard^2 3″ automatic gamma counter (PerkinElmer, Vienna, Austria). For urine analysis, a Dionex Ultimate 3000 RS with an ACE 3C18 column (150 × 3 mm; Aberdeen, Great Britain) and a raytest Gabi radiometric detector (raytest Isotopenmessgeraete GmbH, Straubenhardt, Germany) were used. […]

HCC lesions = assay: Tracer accumulation in HCC lesions (PET/CT); assay type: in vivo, human; settings: nine patients, HCC lesions identified by CT/MRI
Source text: The study included nine patients, and was approved by the ethics committee of the Medical University of Innsbruck and the Austrian Competent Authority (BASG, EudraCT No. 2013-003741-42). Informed written consent was obtained from all patients. Inclusion criteria were untreated HCC lesions in patients with liver cirrhosis Child–Pugh class A or B. Diagnosis and exact number and size of HCC lesions was confirmed by a multiphasic CT or MRI according to EASL/EORTC guidelines. Exclusion criteria were decompensated liver cirrhosis Child–Pugh class C, uncontrolled complications of portal hypertension (refractory ascites, advanced hepatic encephalopathy or large esophageal varices), and advanced renal insufficiency with an eGFR below 30 ml/min. […]
To obtain the time activity curves and to calculate the residence times, VOIs were placed in the corresponding organs (liver, urine bladder, spleen, kidneys, small intestine, muscle, lung, and left ventricle). The diameter of the VOIs was set to 2.5 cm for all organs with the exception of the liver, where it was set to 5 cm and placed in the center of the corresponding organ to avoid underestimated organ radioactivity because of partial-volume effects. […]

[2] = Metabolite analysis of blood samples by RP-HPLC; assay type: in vivo; settings: human blood 30 and 60 min p.i., n = 3; acetonitrile extraction, RP-HPLC C18, 30-s fractions, gamma counter
Experimental: as §1, §2

[3] = Safety and tolerability, phase I clinical study; assay type: in vivo, human
Source text: The study included nine patients, and was approved by the ethics committee of the Medical University of Innsbruck and the Austrian Competent Authority (BASG, EudraCT No. 2013-003741-42). Informed written consent was obtained from all patients. Inclusion criteria were untreated HCC lesions in patients with liver cirrhosis Child–Pugh class A or B. Diagnosis and exact number and size of HCC lesions was confirmed by a multiphasic CT or MRI according to EASL/EORTC guidelines. Exclusion criteria were decompensated liver cirrhosis Child–Pugh class C, uncontrolled complications of portal hypertension (refractory ascites, advanced hepatic encephalopathy or large esophageal varices), and advanced renal insufficiency with an eGFR below 30 ml/min. Baseline examinations included CT or MRI scan, physical examination, ECG, and laboratory tests (including creatinine, blood count, transaminases, bilirubin, and coagulation parameters) not older than 14 days prior to the PET scan. Physical examination and laboratory tests were repeated on the day after the PET scan and during further follow-up visits to assess possible adverse reactions.

[4] = PET/CT biodistribution (%ID/l, SUV); assay type: in vivo, human; settings: for SUV at 1 h / tissue uptake dose at 1 h / SUV: human, total radioactivity; for SUV at 1 h / SUV: intravenous; for SUV at 1 h / tissue uptake dose at 1 h: 60 min p.i.; for tissue uptake dose at 1 h: PET VOI; for SUV: average of all patients
Experimental: For each patient, a total of three PET/CT scans were performed using a Discovery PET/CT 690 VCT scanner (GE Healthcare, Milwaukee, WI, USA). The patients were allowed to urinate after the second scan and a sample of the urine was collected for metabolic analysis. For all patients, the region from upper thigh to the skull/cranium was covered by a seven-bed emission scan (2 min per bed position; field of view is 15.2 cm with overlapping acquisitions, resulting in a length of 12.3 cm for each bed position) performed in caudocranial direction. The mean starting times of the three scans were 8.3 ± 2.1, 36.9 ± 2.8, and 75.1 ± 3.4 min after tracer injection, respectively. Injected activity ranged from 154 to 184 MBq [^68Ga]NODAGA-RGD corresponding with approx. 10–12 μg peptide. X-ray CT transmission scans were performed twice, before the first and the third scan, to correct for gamma ray attenuation and to obtain the anatomical data required for drawing of the volume of interest (VOI). A second CT scan was required to guarantee the same positioning of VOIs (as for first and second scan) for image analysis because of patient movement.
Positron emission data were reconstructed using an ordered-subsets expectation maximization algorithm. Reconstructions were performed with two iterations and 24 subsets. The images were corrected for attenuation using CT data collected over the same regions as for emission imaging. For image analysis, Hermes software (Version P5 gold 4.4-B; Hermes Medical Solutions AB, Stockholm, Sweden) was used. Images were calibrated to Bq/ml for radiation dosimetry estimates.
(§3) To obtain the time activity curves and to calculate the residence times, VOIs were placed in the corresponding organs (liver, urine bladder, spleen, kidneys, small intestine, muscle, lung, and left ventricle). The diameter of the VOIs was set to 2.5 cm for all organs with the exception of the liver, where it was set to 5 cm and placed in the center of the corresponding organ to avoid underestimated organ radioactivity because of partial-volume effects. Due to patient movement, the PET/CTs were fused between second and third scan to guarantee the identical position of VOIs at different scans.

[5] = Radiation dosimetry (OLINDA/EXM); assay type: in vivo, human
Experimental: For dosimetry calculations, the OLINDA/EXM software (Version 1.1, copyright Vanderbilt University, 2007) was used. Radioactivity in the source organs was determined by multiplying the measured radioactivity concentration (Bq/ml) by the organ masses from the OLINDA adult men phantom; the data were body weight- and lean body mass index-corrected; furthermore, kidney mass was patient-corrected by CT scan.
(§4) Urinary bladder radioactivity was determined from three VOIs at least 2.5 cm in diameter drawn inside the bladder. Subsequently, the urinary bladder volume was measured by drawing freehand ROIs around bladder contour at each of the three emission scans. The volume was calculated by HERMES software. The results were used to calculate the urine bladder content residence time.

[6] = Organ/tissue residence times; assay type: in vivo, human; settings: all patients
Source text: as §3
Because of the limited number of measured time points, a monoexponential fit based on the decay corrected data was used for calculation of organ residence times.
as §4

[7] = in vivo; cited from earlier work
Source text: The radiation dose estimates from this study indicate low radiation burden for patients during a [^68Ga]NODAGA-RGD PET scan. The total effective dose was in the range of other radiolabeled RGD-peptides used in clinical studies (e.g., [^18F]Galacto-RGD, Fluciclatide, and RGD-K5; for overview see [6]) as well as other commonly used oncologic PET tracers such as [^18F]FDG (between 20 and 30 μSv/MBq). Even if 200 MBq [^68Ga]NODAGA-RGD (average in this study was 167 ± 10 MBq) would have been injected, the effective dose would have only been 4.3 mSv. This is well within the limits of risk c ...

[8] = set-up: method as in PMID 18483090; settings: 60 min after injection; cited from earlier work
[9] = i.v., OLINDA/EXM, individual residence times, mean of patients
[10] = i.v., OLINDA/EXM, individual residence times, mean of patients, voiding after second scan

SUV at 1 h ([4]; bladder, patients, read-out: median SUV, bladder): 31 SUV | SUV at 1 h ([4]; blood, patients, read-out: median SUV, blood): 0.72 SUV | tissue uptake dose at 1 h ([4]; blood, patients, read-out: %ID/l, blood): 0.56 ± 0.43 %ID | SUV at 1 h ([4]; intestine, patients, read-out: median SUV, intestine): 0.88 SUV | tissue uptake dose at 1 h ([4]; intestine, patients, read-out: %ID/l, intestine): 0.54 ± 0.39 %ID | SUV at 1 h ([4]; kidneys, patients, read-out: median SUV, kidneys): 4.5 SUV | SUV at 1 h ([4]; liver, patients, read-out: median SUV, liver): 2.9 SUV | SUV ([4]; liver, first scan (8 ± 2 min p.i.), read-out: mean SUV in the liver, first image): 3.8 SUV | SUV ([4]; liver, last scan (75 ± 4 min p.i.), read-out: mean SUV in the liver, last image): 2.9 SUV | SUV at 1 h ([4]; lung, patients, read-out: median SUV, lung): 0.39 SUV | tissue uptake dose at 1 h ([4]; lung, patients, read-out: %ID/l, lung): 0.22 ± 0.05 %ID | SUV at 1 h ([4]; muscle, patients, read-out: median SUV, muscle): 0.26 SUV | tissue uptake dose at 1 h ([4]; muscle, patients, read-out: %ID/l, muscle tissue): 0.16 ± 0.8 %ID | SUV at 1 h ([4]; spleen, patients, read-out: median SUV, spleen): 3.8 SUV | radioactivity concentration in the bladder after voiding, % of the value before voiding ([4]; voiding between second and third scan (60 min p.i.), Fig. 3): approx. 20% | effective dose, 30-min bladder voiding model ([5]; OLINDA/EXM, 30-min bladder voiding model): 10.9 ± 1.9 μSv/MBq | absorbed radiation dose, urinary bladder wall ([5]; highest absorbed dose, OLINDA/EXM): 0.26 ± 0.09 mSv/MBq | effective dose if 200 MBq injected ([5]; hypothetical injection of 200 MBq): 4.3 mSv | Radiation dose estimate, Adrenals, Mean [5, 9]: 7.88 μSv/MBq | Radiation dose estimate, Brain, Mean [5, 9]: 5.21 μSv/MBq | Radiation dose estimate, Breast, Mean [5, 9]: 5.01 μSv/MBq | Radiation dose estimate, Gallbladder wall, Mean [5, 9]: 8.67 μSv/MBq | Radiation dose estimate, Heart wall, Mean [5, 9]: 6.33 μSv/MBq | Radiation dose estimate, Kidneys, Mean [5, 9]: 69.00 μSv/MBq | Radiation dose estimate, Liver, Mean [5, 9]: 32.00 μSv/MBq | Radiation dose estimate, Lower large intestinal wall, Mean [5, 9]: 8.98 μSv/MBq | Radiation dose estimate, Lungs, Mean [5, 9]: 7.17 μSv/MBq | Radiation dose estimate, Muscle, Mean [5, 9]: 6.30 μSv/MBq | Radiation dose estimate, Osteogenic cells, Mean [5, 9]: 8.10 μSv/MBq | Radiation dose estimate, Pancreas, Mean [5, 9]: 7.99 μSv/MBq | Radiation dose estimate, Red marrow, Mean [5, 9]: 5.47 μSv/MBq | Radiation dose estimate, Skin, Mean [5, 9]: 5.03 μSv/MBq | Radiation dose estimate, Small intestinal wall, Mean [5, 9]: 15.80 μSv/MBq | Radiation dose estimate, Spleen, Mean [5, 9]: 48.20 μSv/MBq | Radiation dose estimate, Stomach wall, Mean [5, 9]: 1.95 μSv/MBq | Radiation dose estimate, Testes, Mean [5, 9]: 7.15 μSv/MBq | Radiation dose estimate, Thymus, Mean [5, 9]: 5.57 μSv/MBq | Radiation dose estimate, Thyroid, Mean [5, 9]: 5.39 μSv/MBq | Radiation dose estimate, Total body, Mean [5, 9]: 7.29 μSv/MBq | Radiation dose estimate, Upper large intestinal wall, Mean [5, 9]: 7.75 μSv/MBq | Effective dose, Mean [5, 10]: 21.50 μSv/MBq | Radiation dose estimate, Urinary bladder wall, Mean [5, 10]: 262.00 μSv/MBq | sum of the mean residence time ([6]; all organs): 1.11 h | residence time, Remainder of body, Mean [6]: 42.2 (MBq × h/MBq) × 10^2 | residence time, Blood, Mean ([6]; monoexponential fit): 0.011 h | residence time, Kidneys, Mean ([6]; monoexponential fit): 0.054 h | residence time, Liver, Mean ([6]; monoexponential fit): 0.113 h | residence time, Lungs, Mean ([6]; monoexponential fit): 0.011 h | residence time, Muscle, Mean ([6]; monoexponential fit): 0.246 h | residence time, Small intestine, Mean ([6]; monoexponential fit): 1.6 (MBq × h/MBq) × 10^2 | residence time, Spleen, Mean ([6]; monoexponential fit): 1.8 (MBq × h/MBq) × 10^2
Compound: N=C(N)NCCC[C@@H]1NC(=O)[C@H](CCCCNC(=O)CCC(C(=O)O)N2CCN(CC(=O)O)CCN(CC(=O)O)CC2)NC(=O)[C@@H](Cc2ccccc2)NC(=O)[C@H](CC(=O)O)NC(=O)CNC1=O (stereo partly drawn) [[^68Ga]NODAGA-RGD, metal not drawn]
metabolites in urine [1]: No metabolites could be detected; also recorded: No metabolites were detected | uptake in HCC compared with background liver tissue (HCC lesions): No increased uptake; also recorded: no increased radioactivity concentration | metabolites in blood [2]: No metabolites could be detected; also recorded: No metabolites were detected | changes in kidney, liver, or heart function during follow-up ([3]; clinical and biochemical investigations, nine patients): no significant changes | drug-/procedure-related adverse effects ([3]; nine male patients with HCC and liver cirrhosis, i.v. 154-184 MBq): no drug-related adverse effects were observed; also recorded: no procedure-related adverse reactions were observed | tolerability ([3]; nine male patients with HCC and liver cirrhosis, i.v. 154-184 MBq (approx. 10-12 μg peptide)): well tolerated in all patients | elimination ([4]; patients, PET): rapid and predominantly renal elimination

Compound: OC[C@H]1OC(O)[C@H]([18F])[C@@H](O)[C@@H]1O (stereo partly drawn) [[^18F]FDG, 2-[F-18]fluoro-2-deoxy-D-glucose]
effective dose [7]: 20-30 μSv/MBq

Compound: [^18F]Fluciclatide
intact tracer in blood [8]: 74%
